{
  "source": "patent US6172104A",
  "about": "“Dicationic dibenzofuran and dibenzothiophene compounds and methods of use thereof” (priority 1999, dated 2001)",
  "key": {"[1]": {"system": "Pneumocystis carinii", "assay": "Activity against Pneumocystis carinii pneumonia (PCP) in the rat model, dibenzofuran dications (Example 2, Table 2)", "format": "in vivo", "details": "for response vs control in vivo at 10 µmol/kg / response vs control in vivo at 22 µmol/kg / response vs control in vivo at 33 µmol/kg: Pneumocystis carinii, 336 h, read-out: Pneumocystis carinii % Saline control ± std error; for response vs control in vivo at 10 µmol/kg / response vs control in vivo at 22 µmol/kg: iv; for response vs control in vivo at 33 µmol/kg: 33.0 μmol/kg/day by oral gavage", "excerpt": "Compounds 1-3 and 5-7 in the initial screen were given once daily by tail vein injection at a dose of 10 μmol/kg/day for 14 days, with activities compared to pentamidine at approximately one-half the effective iv dose of pentamidine, which is 22 μmol/kg/day.\nCompounds 4 and 8 were synthesized to test if diamidoximes would be effective prodrugs of the dibenzofuran diamidines. Both the diamidoximes were screened for anti-P. carinii activity at 10 μmol/kg/day by tail vein injection and 33 μmol/kg/day by oral gavage for 14 days. […] Further studies of diamidoxime metabolism are being performed using cultured cell lines and cell-free enzyme preparations to understand more about the metabolic mechanisms of prodrug activation.\n^a Dose units were μmol/kg/day. Each compound was administered to 8\nrats once daily for 14 days. Doses marked with (*) were by oral gavage,\nall others were i.v. via tail vein.\n^c Cysts/g lung counts for the saline and pentamidine control groups\nwere pooled across experiments. Scores for each compound were reported as\n% of the pooled saline scores. Saline: 47.53 × 10^6 cysts/g lung\n(n = 45). Petamidine: 0.38 × 10^6 cysts/g lung (n = 42)."}, "[2]": {"system": "Pneumocystis carinii", "assay": "animal or person", "format": "in vivo, Pneumocystis carinii; rat", "details": "for response vs control in vivo at 10 µmol/kg: 10.0 μmol/kg/day iv via tail vein, rats (4 rats for 3, 4, 9)", "excerpt": "The activity is expressed as the percent of cysts counted in treated groups as compared to untreated controls. All of the compounds in the initial screen were given by tail vein injection at a dose of 10 μmol/kg/day for 14 days. The test compounds were compared for efficacy with the standard anti-PCP compound, pentamidine, at one-half the dose of pentamidine. […] Among the 2,8-substituted derivatives, the diamidine 1 and the bis-N-isopropylamidine 2 were very potent. A dose response study was performed upon compound 2.\n^c Expressed as μmol/kg/day, given iv via tail vain to at least 8\nrats once daily for 14 days, unless stated otherwise.\n^e Cysts/g lung counts were 69.18 (× 10^6) for the saline\ncontrol group and 0.51 (× 10^6) for the pentamidine group. These\nscores were pooled across experiments involving compounds 1-9. Saline: n =\n55; pentamidine: n = 52.\n^g Doses given to 4 rats.\n^h Doses given by oral gavage."}, "[3]": {"system": "whole cells", "assay": "Conversion of diamidoxime to diamidine by whole cells (Example 2)", "format": "in vitro ADME", "details": "preliminary results"}, "[4]": {"system": "Pneumocystis carinii", "details": "rat, in vivo; cited from earlier work"}, "[5]": {"details": "Pneumocystis carinii, in Rattus norvegicus, iv, 336 h, once daily 14 days, read-out: Pneumocystis carinii % Saline control ± std error"}, "[6]": {"details": "10.0 μmol/kg/day i.v. via tail vein, once daily 14 days, 8 rats"}},
  "note": "Structures can show the parent of a compound that is named as a salt.",
  "data": [
    {"smiles": "N=C(N)c1ccc2oc3ccc(C(=N)N)cc3c2c1", "note": "[Compound 1 (Example 2), 2,8-Diamidinodibenzofuran dihydrochloride]", "values": [
      {"measurement": "response vs control in vivo at 10 µmol/kg", "setting": "[1]", "value": "7.15 ± 3.81", "unit": "%"},
      {"measurement": "response vs control in vivo at 22 µmol/kg", "setting": "[1]", "value": "0.1 ± 0.02", "unit": "%"}
    ]},
    {"smiles": "N=C(N)c1ccc2sc3ccc(C(=N)N)cc3c2c1", "note": "[Compound 1]", "values": [
      {"measurement": "response vs control in vivo at 10 µmol/kg", "setting": "[2]; [5]", "value": "0.1 ± 0.03", "unit": "%"}
    ]},
    {"smiles": "c1cc2oc3ccc(C4=NCCN4)cc3c2cc1C1=NCCN1", "note": "[Compound 2 (Example 2), 2,8-Di(2-imidazolinyl)dibenzofuran dihydrochloride]", "values": [
      {"measurement": "response vs control in vivo at 10 µmol/kg", "setting": "[1]; [6]", "value": "97.4 ± 31.9", "unit": "%"}
    ]},
    {"smiles": "CC(C)NC(=N)c1ccc2sc3ccc(C(=N)NC(C)C)cc3c2c1", "note": "[Compound 2]", "values": [
      {"measurement": "response vs control in vivo at 0.1 µmol/kg", "setting": "[2]; Pneumocystis carinii, in Rattus norvegicus, iv, 336 h, 0.1 μmol/kg/day iv, once daily 14 days, rats, read-out: Pneumocystis carinii % Saline control ± std error", "value": "94.8 ± 28.3", "unit": "%"},
      {"measurement": "response vs control in vivo at 1 µmol/kg", "setting": "[2]; Pneumocystis carinii, in Rattus norvegicus, iv, 336 h, 1.0 μmol/kg/day iv, once daily 14 days, rats, read-out: Pneumocystis carinii % Saline control ± std error", "value": "12.8 ± 4.02", "unit": "%"},
      {"measurement": "response vs control in vivo at 2.5 µmol/kg", "setting": "[2]; Pneumocystis carinii, in Rattus norvegicus, iv, 336 h, 2.5 μmol/kg/day iv, once daily 14 days, rats, read-out: Pneumocystis carinii % Saline control ± std error", "value": "0.19 ± 0.1", "unit": "%"},
      {"measurement": "response vs control in vivo at 5 µmol/kg", "setting": "[2]; Pneumocystis carinii, in Rattus norvegicus, iv, 336 h, 5.0 μmol/kg/day iv, once daily 14 days, rats, read-out: Pneumocystis carinii % Saline control ± std error", "value": "0.04 ± 0.01", "unit": "%"},
      {"measurement": "response vs control in vivo at 10 µmol/kg", "setting": "[2]; [5]", "value": "0.01 ± 0.01", "unit": "%"}
    ]},
    {"smiles": "CC(C)NC(=N)c1ccc2oc3ccc(C(=N)NC(C)C)cc3c2c1", "note": "[Compound 3 (Example 2), 2,8-Di(N-isopropylamidino)dibenzofuran dihydrochloride]", "values": [
      {"measurement": "response vs control in vivo at 10 µmol/kg", "setting": "[1]; [6]", "value": "0.5 ± 0.27", "unit": "%"}
    ]},
    {"smiles": "NC(=NO)c1ccc2sc3ccc(C(N)=NO)cc3c2c1", "note": "[Compound 3]", "values": [
      {"measurement": "response vs control in vivo at 10 µmol/kg", "setting": "[2]; [5]", "value": "1.3 ± 0.84", "unit": "%"}
    ]},
    {"smiles": "Cl.Cl.N=C(NO)c1ccc2oc3ccc(C(=N)NO)cc3c2c1", "note": "[Compound 4 (Example 2), 2,8-Di(N-hydroxylamidino)dibenzofuran dihydrochloride]", "values": [
      {"measurement": "response vs control in vivo at 33 µmol/kg", "setting": "[1]; once daily 14 days, 8 rats", "value": "45.1 ± 21.6", "unit": "%"},
      {"measurement": "response vs control in vivo at 10 µmol/kg", "setting": "[1]; [6]", "value": "15.8 ± 14.6", "unit": "%"},
      {"measurement": "conversion of diamidoxime to diamidine (in words)", "setting": "[3]", "value": "less efficient than conversion of pentamidoxime to pentamidine by whole cells"}
    ]},
    {"smiles": "N=C(N)c1ccc2c(c1)oc1cc(C(=N)N)ccc12", "note": "[Compound 5 (Example 2), 3,7-Diamidinodibenzofuran dihydrochloride]", "values": [
      {"measurement": "response vs control in vivo at 10 µmol/kg", "setting": "[1]; [6]", "value": "183 ± 38.3", "unit": "%"}
    ]},
    {"smiles": "c1cc2sc3ccc(C4=NCCN4)cc3c2cc1C1=NCCN1", "note": "[Compound 5]", "values": [
      {"measurement": "response vs control in vivo at 10 µmol/kg", "setting": "[2]; [5]", "value": "28 ± 12.7", "unit": "%"}
    ]},
    {"smiles": "c1cc2c(cc1C1=NCCN1)oc1cc(C3=NCCN3)ccc12", "note": "[Compound 6 (Example 2), 3,7-Di(2-imidazolinyl)dibenzofuran dihydrochloride]", "values": [
      {"measurement": "response vs control in vivo at 10 µmol/kg", "setting": "[1]; [6]", "value": "220 ± 39.3", "unit": "%"}
    ]},
    {"smiles": "O=S1(=O)c2ccc(C3=NCCN3)cc2-c2cc(C3=NCCN3)ccc21", "note": "[Compound 6]", "values": [
      {"measurement": "response vs control in vivo at 10 µmol/kg", "setting": "[2]; [5]", "value": "93.5 ± 9.58", "unit": "%"}
    ]},
    {"smiles": "CC(C)NC(=N)c1ccc2c(c1)oc1cc(C(=N)NC(C)C)ccc12", "note": "[Compound 7 (Example 2), 3,7-Di(isopropylamidino)dibenzofuran dihydrochloride]", "values": [
      {"measurement": "response vs control in vivo at 10 µmol/kg", "setting": "[1]; [6]", "value": "0.28 ± 0.27", "unit": "%"}
    ]},
    {"smiles": "N=C(N)c1ccc2c(c1)sc1cc(C(=N)N)ccc12", "note": "[Compound 7]", "values": [
      {"measurement": "response vs control in vivo at 10 µmol/kg", "setting": "[2]; [5]", "value": "36 ± 9.59", "unit": "%"}
    ]},
    {"smiles": "NC(=NO)c1ccc2c(c1)oc1cc(C(N)=NO)ccc12", "note": "[Compound 8 (Example 2), 3,7-Di(A-hydroxylamidino)dibenzofuran dihydrochloride]", "values": [
      {"measurement": "response vs control in vivo at 33 µmol/kg", "setting": "[1]; once daily 14 days, 8 rats", "value": "150 ± 54", "unit": "%"},
      {"measurement": "response vs control in vivo at 10 µmol/kg", "setting": "[1]; [6]", "value": "166 ± 109", "unit": "%"}
    ]},
    {"smiles": "CC(C)NC(=N)c1ccc2c(c1)sc1cc(C(=N)NC(C)C)ccc12", "note": "[Compound 8]", "values": [
      {"measurement": "response vs control in vivo at 10 µmol/kg", "setting": "[2]; [5]", "value": "0.04 ± 0.02", "unit": "%"}
    ]},
    {"smiles": "Cl.Cl.N=C(NO)c1ccc2c(c1)sc1cc(C(=N)NO)ccc12", "note": "[Compound 9 (Example 1), 3,7-Bis(N-hydroxyamidino)dibenzothiophene dihydrochloride]", "values": [
      {"measurement": "response vs control in vivo at 10 µmol/kg", "setting": "[2]; [5]", "value": "112 ± 76.5", "unit": "%"},
      {"measurement": "response vs control in vivo at 33 µmol/kg", "setting": "[2]; Pneumocystis carinii, in Rattus norvegicus, po, 336 h, 33.0 μmol/kg/day by oral gavage, once daily 14 days, 4 rats, read-out: Pneumocystis carinii % Saline control ± std error", "value": "45.6 ± 26.1", "unit": "%"},
      {"measurement": "anti-PCP activity by both routes (in words)", "setting": "[2]; intravenous and oral administration", "value": "inactive by both intravenous and oral administration"}
    ]},
    {"smiles": "N=C(N)c1ccc(OCCCCCOc2ccc(C(=N)N)cc2)cc1", "note": "[Pentamidine, reference compound]", "values": [
      {"measurement": "response vs control in vivo at 22 µmol/kg", "setting": "[1]", "value": "0.8 ± 0.17", "unit": "%"},
      {"measurement": "Cysts/g lung counts", "setting": "[1]; pentamidine control group pooled across experiments, n = 42", "value": "0.38 × 10^6 cysts/g lung"},
      {"measurement": "response vs control in vivo at 22 µmol/kg", "setting": "[2]; Pneumocystis carinii, in Rattus norvegicus, iv, 336 h, read-out: Pneumocystis carinii % Saline control ± std error", "value": "0.74 ± 0.12", "unit": "%"},
      {"measurement": "Cysts/g lung counts", "setting": "[2]; pentamidine group pooled across experiments, n = 52, 22.0 μmol/kg/day iv", "value": "0.51 × 10^6 cysts/g lung"}
    ]},
    {"smiles": "N/C(=N\\O)c1ccc(OCCCCCOc2ccc(/C(N)=N/O)cc2)cc1", "note": "[Pentamidoxime, reference compound]", "values": [
      {"measurement": "response vs control in vivo at 33 µmol/kg", "setting": "[1]; once daily 14 days, 8 rats", "value": "13.8 ± 9.12", "unit": "%"},
      {"measurement": "response vs control in vivo at 22 µmol/kg", "setting": "[1]; 22.0 μmol/kg/day i.v. via tail vein, once daily 14 days, 8 rats", "value": "0.11 ± 0.02", "unit": "%"},
      {"measurement": "prodrug behaviour (in words)", "setting": "[4]", "value": "an effective prodrug"}
    ]}
  ]
}
